# Test results from patent US20120269870A1, “SWITCHABLE POLYMERS AND SURFACES WITH REVERSIBLY SWITCHABLE PROPERTIES” (University of Washington through its Center for …, priority 2011, published 2012).
# Test: Kinetic study between CB—OH and CB-Ring by 1H NMR
# Assay type: physicochemical
# Settings: for half-life of CB-Ring (hydrolysis to CB—OH): buffer
# Procedure: Kinetic study between CB—OH and CB-Ring. The equilibrium conversion between the CB—OH and CB-Ring was monitored by ^1H NMR at various time points. To monitor the formation of CB-Ring, CB—OH powder was initially dissolved in TFA-d at a concentration of 0.2 M. The conversion from CB-Ring to CB—OH was studied by dissolving CB-Ring in either pH 7.3 or pH 10 buffer at a concentration of 0.2 M. These two buffers were made from 200 mM Na2CO3 in D2O and were titrated with DCl. Conversion was calculated based on the ratio of the characteristic peak for CB-Ring (1H, CH2═C(CH3)COOCH2CH(O—)CH2—) and a common peak of both structures (6H, —CH2N(CH3)2CH2—). In FIG. 5, the final conversion within 160 min was about 93% for all three conditions investigated. Because the integration error for ^1H NMR can be as large as 10%, a value of 93% essentially represented an almost full conversion.
# Kinetic study between CB—OH and CB-Ring in acetic acid/pH=7.3 buffer. ^1H NMR was used to monitor the equilibrium conversion between the CB—OH and CB-Ring. CB—OH monomer was initially dissolved in [D]acetic acid at a concentration of 0.2 M. At various time points, the spectra were collected, and composition for the formed CB-Ring was calculated based on the ratio of the characteristic peaks for CB-Ring and CB—OH (FIG. 16). The equilibrated product (a mixture of CB-Ring and CB—OH) in [D]acetic acid was precipitated in ethyl ether, vacuum dried, and placed into pH=7.3 buffer made from 200 mM Na2CO3 in D2O titrated with DCl. CB-Ring was hydrolyzed to CB—OH at this condition and the composition for the CB-Ring at various time points were measured (FIG. 16).
Structure (SMILES),"conversion of CB—OH to CB-ring (in words) (TFA, 1 h)",time to full conversion into the CB-Ring structure (TFA-d),"half-life at 0.2 M (TFA-d solution, acidic environment, TFA-d / TFA, read-out: half-life of CB—OH (conversion to CB-Ring))","final conversion to CB-Ring within 160 min (TFA-d, 0.2 M)","conversion of CB—OH to CB-Ring ([D]HAc (acetic acid), 0.2 M, 20 h)",half-life of CB-Ring (hydrolysis to CB—OH) (pH 7),half-life of CB-Ring (hydrolysis to CB—OH) (pH 10),final conversion to CB—OH within 160 min (pH 7.3 buffer (200 mM Na2CO3 in D2O titrated with DCl)),"time to nearly full conversion (hydrolysis) of CB-Ring back to CB—OH (pH 7.3 buffer, product equilibrated 40 h in [D]HAc)",time to complete conversion to the zwitterionic form (pH 10),final conversion to CB—OH within 160 min (pH 10 buffer (200 mM Na2CO3 in D2O titrated with DCl))
"C=C(C)C(=O)OCC(O)C[N+](C)(C)CC(=O)[O-] (centres unmarked) [CB—OH, 2-((2-Hydroxy-3-(methacryloyloxy)propyl)dimethylammonio)acetate]",almost complete conversion,≤ 2 h,~14 min,about 93%,50%,–,–,–,–,–,–
"C=C(C)C(=O)OCC1C[N+](C)(C)CC(=O)O1 (centres unmarked) [CB-Ring, 2-(Methacryloyloxymethyl)-4,4-dimethyl-6-oxomorpholin-4-ium]",–,–,–,–,–,about 4 min,< 1 min,about 93%,less than 10 min,less than 6 min,about 93%
